In test [1] the test system is HK-2 (Human Kidney-2) cells. The test can be described thus: HK-2 cell culture, TNF-alpha induced cytokine and adhesion molecule production (ELISA). The format is cell-based. As to conditions: proximal tubule cells. Here is the method: Injury of PTEC by TNF-α and cisplatin (an anti-neoplastic agent) results in the induction of apoptosis, as shown by DNA damage, mitochondial disfunction, BAX […] and caspase activation. BMP-7 protects PTEC/kidney function by inhibiting TNF-α and cisplatin-induced apoptosis in these cells. The immortalized PTEC-derived HK-2 (Human Kidney-2) cells (ATCC number CRL-2190) were grown in serum-free keratinocyte medium (GIBCO number 17005-042) supplemented with epidermal growth factor (EGF: 5 ng/mL) and bovine pituitary extract (40 ug/mL) for 48 hours as described previously (Ryan et al. (1994) Kidney International 45:48-57). Cells were transferred to 24-well plates at a density of 3×10^5 cells per well. After 24 hours, cells were incubated with fresh medium containing TNF-alpha (5 ng/mL) for 20 hours. Controls received medium alone. Then cells were washed twice with fresh culture medium and further incubated with culture medium alone (medium control, and TNF control wells) or TDF-1 at three different concentrations (40, 200 or 1000 ng/mL) or TDFRP compounds at three different concentrations (4, 20 or 100 uM) for sixty hours. During incubation, cells were kept in a 5% CO2 humid atmosphere at 37° C. […] The concentrations of IL-6, IL-8 and sICAM-1 in culture supernatants were measured by specific ELISA (FIG. 14). […]
(In general: An ELISA detects its analyte on a solid surface through an enzyme-linked reagent.)

The subject of test [2] is renal tubular epithelial cells. As to conditions: 100 ng/ml, 48 hours; cited from earlier work.

Positions of bridges follow the written chain, without caps; N, C: chain ends. No end group written: not given here.

Regarding “CYFDDSSNVLCKKYRS (disulfide 1-11 (inferred); not fully specified) [SEQ ID NO:45]”, in test [1], the “TNF-alpha induced inflammatory response (increase in IL-6)” value is on record as “alleviate”.

B1: BMP-7: recombinant human mature BMP-7 (BMP-7 or TDF-1), positive control therapy (protein)
chain: STGSKQRSQNRSKTPKNQEALRMANVAENSSSDQRQACKKHELYVSFRDLGWQDWIIAPEGYAAYYCEGECAFPLNSYMNATNHAIVQTLVHFINPETVPKPCCAPTQLNAISVLYFDDSSNVILKKYRNMVVRACGCH
Consider B1, for which the “TGF-beta1 induced EMT” value in test [2] is “reverses”.

The record behind these values is patent publication US8911953B2, “TDF-related compounds and analogs thereof, analogs and bioactive fragments” (Thrasos Innovation, Inc., priority 2005, dated 2014).
